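96-well plates; 48 h exposure; 5 concentrations. Endpoints by linear interpolation between flanking doses. Not reached: highest tested concentration assigned. The concentration for 50% growth inhibition is given as GI50. TGI marks complete inhibition of growth.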
What was measured:
Assay in all cases: DTP human tumour cell line panel, 48 h
A498 renal = test system: A498 renal
HL-60(TB) leukemia = test system: HL-60(TB) leukemia
LOX IMVI melanoma = test system: LOX IMVI melanoma
M14 melanoma = test system: M14 melanoma
MDA-MB-231 breast = test system: MDA-MB-231 breast
NCI-H226 lung = test system: NCI-H226 lung
SF-295 CNS = test system: SF-295 CNS
SN12C renal = test system: SN12C renal
SW-620 colon = test system: SW-620 colon
UO-31 renal = test system: UO-31 renal

SMILES | TGI (A498 renal) [µM] | TGI (HL-60(TB) leukemia) [µM] | TGI (LOX IMVI melanoma) [µM] | TGI (M14 melanoma) [µM] | TGI (MDA-MB-231 breast) [µM] | TGI (NCI-H226 lung) [µM] | TGI (SF-295 CNS) [µM] | TGI (SN12C renal) [µM] | TGI (SW-620 colon) [µM] | TGI (UO-31 renal) [µM] | GI50 (A498 renal) [µM] | GI50 (HL-60(TB) leukemia) [µM] | GI50 (MDA-MB-231 breast) [µM] | GI50 (NCI-H226 lung) [µM] | GI50 (SF-295 CNS) [µM] | GI50 (SN12C renal) [µM] | GI50 (SW-620 colon) [µM] | GI50 (UO-31 renal) [µM]
COc1ccc(C(Cc2ccccc2)C2NC(=S)NC2=O)cc1 (centres undefined) | > 25 | > 25 | > 25 | > 25 | > 25 | > 25 | > 25 | > 25 | > 25 | > 25 |  |  |  |  |  |  |  | 
Cc1ccnc2nc(N)ccc12 | > 100 | > 100 |  | > 100 | > 100 | > 100 | > 100 | > 100 | > 100 | > 100 |  |  |  |  |  |  |  | 
Nc1cccc(S(=O)(=O)Nc2nnc(S(N)(=O)=O)s2)c1 | > 100 | > 100 | > 100 | > 100 | > 100 | > 100 | > 100 |  | > 100 | > 100 |  |  |  |  |  |  |  | 
OCC(CCc1ccccc1I)C1=CCC2(CC1)OCCO2 (centres undefined) | 55.9 | 28.9 | 29.1 | 35.3 | 62.9 | 88.2 | 32.1 |  | 61.5 | 41.1 |  |  |  |  |  |  |  | 
CC1(C)CC2(C)CC1CC2(O)c1ccccc1 (centres undefined) | > 100 | > 100 |  | > 100 | > 100 | > 100 | > 100 | > 100 | > 100 | > 100 |  |  |  |  |  |  |  | 
O=C1C=C2CCC[C@H]3OC(=O)C[C@@]23CC1 | > 100 | > 100 | > 100 | > 100 | > 100 | > 100 | > 100 | > 100 | > 100 |  |  |  |  |  |  |  |  | 
CC(=O)OC1C2CCC3C(C)(O)C4CC(O)C(C)(C)C4(O)C(O)CC13CC2(C)O (centres undefined) | > 100 | > 100 | > 100 | > 100 | > 100 | > 100 | > 100 | > 100 |  | > 100 |  |  |  |  |  |  |  | 
COC(=O)c1c(CC(Cc2ccc3c(c2)CCCC3)C(=O)OC)ccc2c1CCCC2 (centres undefined) | > 100 | 42.4 | > 100 | > 100 | > 100 |  | > 100 | > 100 | > 100 | > 100 |  |  |  |  |  |  |  | 
Cc1nc2n(c1/C=C1/C(=O)Nc3ccccc31)CCS2 | > 100 | > 100 | > 100 | > 100 | > 100 |  | > 100 | > 100 | > 100 | > 100 |  |  |  |  |  |  |  | 
CCCCCCCCCC(=O)N[C@@H](c1ccco1)[C@@H](O)C(=O)O[C@H]1C[C@@]2(O)[C@@H](OC(=O)c3ccccc3)[C@@H]3[C@]4(OC(C)=O)CO[C@@H]4C[C@H](O)[C@@]3(C)C(=O)[C@H](OC(C)=O)C(=C1C)C2(C)C | 10.3 | 0.0292 | 7.74 |  | 4.47 | 9.53 | 0.211 | 11.4 | > 50 | 12.7 |  |  |  |  |  |  |  | 
Nc1nccc(NCC2(CO)CCC2)n1 | > 100 | > 100 | > 100 |  | > 100 | > 100 | > 100 | > 100 | > 100 | > 100 |  |  |  |  |  |  |  | 
C=C1[C@@](C)([C@@H]2CCCS2)[C@H]2C(C)=C[C@]1(C)n1c(=O)n(-c3ccccc3)c(=O)n12 | > 100 | > 100 |  | > 100 | > 100 | > 100 | > 100 | > 100 | > 100 | > 100 |  |  |  |  |  |  |  | 
CCCC1C(=O)Nc2cccc3ncn(c23)C1=O (centres undefined) | > 100 | > 100 |  | > 100 | > 100 | > 100 | > 100 | > 100 | > 100 | > 100 |  |  |  |  |  |  |  | 
COc1ccc(/C=C/C(=O)c2ccc(-n3cc(CN4CCN(c5cc6c(cc5F)c(=O)c(C(=O)O)cn6C5CC5)CC4)nn3)cc2)cc1OC | 14.4 | > 100 |  |  | > 100 | 6.63 | > 100 | 10 | 6.98 | 9.01 | 4.18 | 3.18 | 3.2 | 2.39 | 2.91 | 2.66 | 1.37 | 1.73
O=S(=O)(O)c1cccc2cccc(N=Nc3c(O)ccc4ccccc34)c12 | > 100 | > 100 |  | > 100 | > 100 | > 100 | > 100 | > 100 | > 100 | > 100 |  |  |  |  |  |  |  | 
CCOC(=O)NNC(=O)NCc1ccccc1CNC(=O)NNC(=O)OCC | > 100 | > 100 | > 100 | > 100 | > 100 | > 100 |  | > 100 | > 100 | > 100 |  |  |  |  |  |  |  | 
O=[N+]([O-])c1ccc2oc(=Nc3ccccc3)c(Nc3ccccc3)nc2c1 | > 100 | > 100 | > 100 |  | > 100 | > 100 | > 100 | > 100 | > 100 | > 100 |  |  |  |  |  |  |  | 
COC(=O)C1=C(O)C(C(=O)OC)[C@]2(O)[C@@H](C(=O)OC)[C@H]1C[C@@H](c1ccccc1)[C@@H]2C(=O)OC (some centres undefined) | 35.2 | > 100 | 39.3 | 24.5 | 49.3 | 61.5 |  | 32.1 |  | 26.6 |  |  |  |  |  |  |  | 
